From patent US7314867B2, “Pharmaceutical composition comprising a retro-iverso isomer peptide” (priority 2002, dated 2008)
“Also recorded” adds a separate entry of the source.

Test system: serum triglyceride levels in male ICR mice
Assay: Oral administration of peptides to determine inhibition of serum triglyceride level elevation after olive oil feeding
Format: in vivo
Details: for Serum Triglyceride: male ICR mice fasted overnight, olive oil 250 mg by gastric intubation, peptide 1.0 mg/mouse orally one hour after lipid, blood collected after two hours; for % Decrease (serum triglyceride) / Activity in lowering elevated serum triglyceride levels compared with the corresponding natural reference peptide: male ICR mice, peptide 1.0 mg/mouse orally; for % Decrease (serum triglyceride): olive oil 250 mg, versus Olive Oil Only; for Activity in lowering elevated serum triglyceride levels compared with the corresponding natural reference peptide: olive oil load, comparison in words
Description: Olive oil (250 mg) was administered via gastric intubation to male ICR mice (6-week old, body weight: 20 g), which were fasted overnight. The peptides were dissolved in 0.1 ml saline solution and administered orally one hour after lipid administration. For the control group, 0.1 ml of saline solution was administered per mouse. After two hours, blood was collected from the orbital vein under ether anesthesia and the serum was separated by centrifugation (3000 rpm, 30 min, 1° C.). Serum triglyceride levels were assayed using commercially available methods (e.g. INFINITY (Registered Trade Mark) triglycerides reagent; Sigma Chemical Co.). The results were compared with L-Val-L-Val-L-Tyr-L-Pro (Reference Peptide 1), L-Val-L-Tyr-L-Pro (Reference Peptide 2), and L-Val-L-Thr-L-Leu (Reference Peptide 3) and shown in Table 1.

| Substance | Serum Triglyceride [mg/100 ml] | % Decrease (serum triglyceride) [%] | Activity in lowering elevated serum triglyceride levels compared with the corresponding natural reference peptide | Activity in lowering elevated serum triglyceride levels compared with the corresponding natural reference peptide (listed as D-Leu D-Thr D-Val) |
| --- | --- | --- | --- | --- |
| D-Leu D-Thr D-Val C-NH2 [Retro Inverso Polypeptide 3] | 294.6 ± 33.8 | 28.7 | higher activities in lowering elevated serum triglyceride levels than Reference 2 and 3, respectively | substantially exceed the activity of the corresponding natural oligopeptide |
| D-Pro D-Tyr D-Val C-NH2 [Retro Inverso Polypeptide 2] | 231.8 ± 27.6 | 50.8 | substantially exceed the activity of the corresponding natural oligopeptide |  |
| D-Pro D-Tyr D-Val D-Val C-NH2 [Retro Inverso Polypeptide 1] | 313.7 ± 45.9 | 22.0 | higher activities in lowering elevated serum triglyceride levels than Reference 2 and 3, respectively; also recorded: about half of Reference Peptide 1 |  |
| L-Val-L-Thr-L-Leu [Ref. Peptide 3, reference compound] | 352.7 ± 35.6 | 8.3 |  |  |
| L-Val-L-Tyr-L-Pro [Ref. Peptide 2, reference compound] | 407.7 ± 42.0 | 0 |  |  |
| L-Val-L-Val-L-Tyr-L-Pro [Ref. Peptide 1, reference compound] | 244.7 ± 25.5 | 46.3 |  |  |
